Entries after “also recorded” stand apart in the source; their conditions may differ.
Tests used:
Assay type in all cases: cell-based, human
PC3 cells = test: Annexin-V apoptosis assay by flow cytometry, PC3; conditions: PC3, 48 hr; Ptxl 1 nM, p28 50 μM, aurA/aurB 0.5-50 μM
Method: (§1) FIG. 7A-7D: Determination of apoptotic cell death. Prostate cancer cell lines (7A: LNCaP, 7B: DU145 and 7C: PC3) and normal prostate CRL11611 cells (7D) were exposed to the indicated agents for 48 hr and stained using apoptosis assay kits according to the manufacturer's instructions. The samples were analyzed by flow cytometry. Mean±SE (N=3).
(§2) After 48 hr, annexin-V apoptosis assays (Thermo Fisher Scientific) were conducted to detect apoptotic cells. At least 10,000 cells in each case were analyzed by FACS (RRC, UIC).

DU145 cells = test: Annexin-V apoptosis assay by flow cytometry, DU145; conditions: DU145, 48 hr; Ptxl 1 nM, p28 50 μM, aurA/aurB 0.5-50 μM
Method: as §1, §2

[1] = tested on: PC3 prostate cancer cells; test: MTT cell viability assay, PC3 prostate cancer cells
Method: (§3) Cell lines and culture: Human cancer and noncancer (immortalized and nonimmortalized) cell lines were obtained from the American Type Culture Collection [prostate cancer (PC3, DU145 and LNCaP), normal prostate (CRL11611), breast cancer (MCF-7), ovarian cancer (SK-OV3 adenocarcinoma), lung cancer (A549)]. MDD2 breast cancer cells (p53 dominant-negative) were provided courtesy of Dr Andrei V. Gudkov, Roswell Park Cancer Institute. 20 All cell lines were cultured in MEM-E (Invitrogen) supplemented with 10% heat-inactivated fetal bovine serum (Atlanta Biological, Inc.), 100 units/mL penicillin, and 100 μg/mL streptomycin at 37° C. in 5% CO2.

[2] = tested on: normal prostate cells CRL11611; test: MTT cell viability assay, normal prostate CRL11611 cells; conditions: normal prostate CRL11611 (p53+, AR+), 24-72 hr; paclitaxel 1 nM
Text: FIG. 4A-4D: Effect of peptides on prostate cancer cell lines with differences in p53 and AR expression status. […] Control (PBS)-treated cells were considered to have 100% viability. Mean±SE (N=3).
as §3
Cytotoxicity assay: The MTT assay was performed as we previously described (Cha et al., Cancer Research 2020, 80: 1615-1623).

LNCaP cells = test: Annexin-V apoptosis assay by flow cytometry, LNCaP; conditions: 48 hr, Ptxl 1 nM, p28 50 μM, aurA/aurB 0.5-50 μM
Method: as §1, §2

[3] = tested on: normal prostate CRL11611 cells; test: Annexin-V apoptosis assay by flow cytometry, normal prostate CRL11611; conditions: normal CRL11611, 48 hr; Ptxl 1 nM, p28 50 μM, aurA/aurB 0.5-50 μM
Method: as §1, §2

MDA-MB-231 cells = test: Aldolase A secretion and expression in MDA-MB-231 cells treated with purified azurin; conditions: MDA-MB-231, purified azurin 100 nM, 10 μM, 1 mM, 30 min
Method: FIG. 18A-18G: Induction of aldolase A secretion by host cells in the presence of P. aeruginosa. 18A. […] Aldolase secretion varied between the co-cultures with cancer and normal cells. […] 18B Correlation between the aldolase A and azurin levels in co-cultures of P. aeruginosa with cancer or normal cells. […] Secretion of aldolase into the culture supernatant was assessed by western blot analysis. 18D P. aeruginosa (OD=0.3) was treated with purified aldolase A protein at concentrations of 1 nM, 10 nM, 100 nM, and 1 μM for 30 min. […] MDA-MB-231 (18E) and Mel-2 (18F) cells were treated with purified azurin protein at concentrations of 100 nM, 10 μM, and 1 mM for 30 min. […] 18G Aldolase A secretion in the presence of P. aeruginosa is distance-dependent. […]
Aldolase A gene expression in MDA-MB-231 (black bars) and Mel-2 (white bars) cells was determined by RT-PCR (22A). […] 22B: Intracellular levels of aldolase A were assessed by western blot analysis with an anti-aldolase A antibody. […]
Western blotting: After running the NuPAGE, proteins were transferred to PVDF membranes (BioRad Laboratories Inc, Hercules, CA) which were blocked in SuperBlock (T20 TBS buffer, Thermo Fisher) for one hour. […] The signal was detected using enhanced chemiluminescence (ECL, Thermo Fisher Scientific). Quantitative analysis of the bands was performed with a computer-assisted imaging densitometer (UN-SCAN-IT gel version 5.1). […]

Substance | apoptotic cell death (PC3 cells) | apoptotic cell death (DU145 cells) | effect on p53-inactive cancer cells (MTT) ([1]; PC3 (p53-null), 0.1-100 μM, 24 hr) | cytotoxic effect (MTT cell viability) ([1]; PC3 (p53-null, AR−), 24-72 hr, paclitaxel 1 nM) | inhibition rate ([1]; PC3, 100 μM for 72 hr) [%] | cytotoxic effect (MTT cell viability) [2] | apoptotic cell death (LNCaP cells) | apoptotic cell death [3] | aldolase A gene expression and intracellular levels (MDA-MB-231 cells) | aldolase A secretion into culture medium (western blot) (MDA-MB-231 cells)
LVN GGD DVA AAV NTA AQN NAD ALF VPPP (LVNGGDDVAAAVNTAAQNNADALFVPPP) [aurB] | induced significant dose-dependent apoptosis | induced significant dose-dependent apoptosis | dose-dependent | significantly induced dose-dependent cytotoxic effects; also recorded: more sensitive than the normal prostate cell line | ~50 | not evident | induced significant dose-dependent apoptosis | less extent | – | –
azurin: 14 kDa periplasmic copper protein of 128 amino acids from P. aeruginosa; purified recombinant | – | – | – | – | – | – | – | – | without increasing gene expression or intracellular levels of aldolase A | secreted a considerable amount of human aldolase A

Reference: patent publication US20250179126A1, “A NOVEL PEPTIDE FROM A PHOTOSYNTHETIC BACERIUM DIRECTLY TARGETS MITOCHONDRIA TO TRIGGER APOPTOSIS IN ADVANCED PROSTATE CANCER CELLS” (priority 2022, published 2025)
